Measurements: patent US9273075B2, “Prodrugs of 1,4-benzodiazepinone compounds” (BRISTOL-MYERS SQUIBB COMPANY, priority 2012, dated 2016)

Legend:
[1] = test system: U-87 glioblastoma multiforme (GBM); experiment: Human tumor xenograft in mice: U-87; type: in vivo; details: U-87 xenograft; PO, QDx15, 10 day-on-2 day-off, 5-10 mg/kg/adm
HCT116 colon cancer = experiment: Human tumor xenograft in mice: HCT116; type: in vivo; details: PO, QDx15, 10 day-on-2 day-off, 5-10 mg/kg/adm
G292 osteogenic sarcoma = experiment: Human tumor xenograft in mice: G292; type: in vivo; details: PO, QDx15, 10 day-on-2 day-off, 5-10 mg/kg/adm
SK-N-AS neuroblastoma = experiment: Human tumor xenograft in mice: SK-N-AS; type: in vivo; details: PO, QDx15, 10 day-on-2 day-off, 5-10 mg/kg/adm
[2] = test system: MCF7i estrogen-independent breast cancer; experiment: Human tumor xenograft in mice: MCF7i; type: in vivo; details: PO, QDx15, 10 day-on-2 day-off, 5-10 mg/kg/adm
[3] = test system: Calu-6 Non small cell lung cancer; experiment: Human tumor xenograft in mice: Calu-6; type: in vivo; details: Calu-6 xenograft; PO, QDx15, 10 day-on-2 day-off, 5-10 mg/kg/adm
[4] = 0.5 μM compound, human liver microsomes, ten-minute incubation, NADPH
Description: The metabolic stability assay evaluated CYP-mediated metabolic stability in vitro using human, rat, mouse, dog, and/or monkey microsomes after a ten-minute incubation. Each compound was tested in duplicate.
Test compound was received as a 3.5 mM stock solution in 100 percent DMSO. […] Each compound was tested in duplicate separately in each of three species in the Metabolic Stability-Human, Rat, and Mouse assay suite or as individual species in the Metabolic Stability-Dog or Metabolic Stability-Monkey suites. Compound, NADPH, and liver microsome solutions were combined for incubation in three steps:
The reaction was initiated by the addition of 17 μl of pre-warmed 10 mM NADPH solution in 100 mM NaPi, pH 7.4.
The reaction components were mixed well, and 75 μl of the reaction mixture was immediately transferred into 150 μl quench/stop solution (zero-time point, T0). Reactions were incubated at 37° C. for 10 minutes and then an additional 75 μl aliquot was transferred into 150 μl quench solution. Acetonitrile containing 100 μM DMN (a UV standard for injection quality control), was used as the quench solution to terminate metabolic reactions.
Quenched mixtures were centrifuged at 1500 rpm (˜500×g) in an ALLEGRA® X-12 centrifuge, SX4750 rotor (Beckman Coulter Inc., Fullerton, Calif.) for fifteen minutes to pellet denatured microsomes. A volume of 90 μl of supernatant extract, containing the mixture of parent compound and its metabolites, was then transferred to a separate 96-well plate for UV-LC/MS-MS analysis to determine the percent of parent compound that remained in the mixture.
Peak integration was performed with the XCALIBUR® software. The percent remaining calculation was performed by comparing the LC-MS/MS peak areas from the T10minute samples to those from the T0minute samples for each compound.
A set of three compounds was tested along with the test compound in each assay plate.

[5] = test system: Pat-21/Abx R TN breast cancer (abx R); experiment: Human tumor xenograft in mice: Pat-21/Abx R; type: in vivo; details: Pat-21/Abx R xenograft; PO, QDx15, 10 day-on-2 day-off, 5-10 mg/kg/adm
[6] = test system: BT-474 HER2+ breast cancer; experiment: Human tumor xenograft in mice: BT-474; type: in vivo; details: BT-474 xenograft; PO, QDx15, 10 day-on-2 day-off, 5-10 mg/kg/adm
Pat-24 pancreatic cancer = experiment: Human tumor xenograft in mice: Pat-24; type: in vivo; details: Pat-24 xenograft; PO, QDx15, 10 day-on-2 day-off, 5-10 mg/kg/adm
[7] = test system: MDA-MB468 TN breast cancer; experiment: Human tumor xenograft in mice: MDA-MB468; type: in vivo; details: PO, QDx15, 10 day-on-2 day-off, 5-10 mg/kg/adm
TALL-1 leukemia = experiment: Cell proliferation, TALL-1 leukemia; type: cell-based; details: Homo sapiens; TALL-1 leukemia cells
Description: (§1) In in vitro studies, all agents were dissolved in 100% DMSO and serially diluted in media/10% fetal bovine serum. For administration of Notch inhibitors to rodents, two different excipients were used: [1] 94% Labrafil/5% ETOH/1% TW80 or [2] ETOH/TPGS/PEG300 (10:10:80). Notch inhibitors were typically administered orally on a schedule of QD×15, 10 day-on-2 day-off, although other schedules had also been evaluated and shown to be efficacious.

[8] = test system: MCF7 estrogen-dependent breast cancer; experiment: Human tumor xenograft in mice: MCF7; type: in vivo; details: PO, QDx15, 10 day-on-2 day-off, 5-10 mg/kg/adm
Pat-26 pancreatic cancer = experiment: Human tumor xenograft in mice: Pat-26; type: in vivo; details: Pat-26 xenograft; PO, QDx15, 10 day-on-2 day-off, 5-10 mg/kg/adm
MDA-MB-468 breast cancer = experiment: Cell proliferation, MDA-MB-468 breast cancer; type: cell-based; details: Homo sapiens; MDA-MB-468 breast cancer cells
Description: as §1

Pat-50 ovarian cancer = experiment: Human tumor xenograft in mice: Pat-50; type: in vivo; details: Pat-50 xenograft; PO, QDx15, 10 day-on-2 day-off, 5-10 mg/kg/adm
Pat-34 ovarian cancer = experiment: Human tumor xenograft in mice: Pat-34; type: in vivo; details: Pat-34 xenograft; PO, QDx15, 10 day-on-2 day-off, 5-10 mg/kg/adm
[9] = test system: TALL1 Human T-cell acute lymphoblastic leukemia; experiment: Human tumor xenograft in mice: TALL1; type: in vivo
[10] = High Throughput Metabolic Stability Panel, mouse liver microsomes; details: 0.5 μM compound, mouse liver microsomes, ten-minute incubation, NADPH
[11] = test system: MDA-MB157 TN breast cancer; experiment: Human tumor xenograft in mice: MDA-MB157; type: in vivo; details: PO, QDx15, 10 day-on-2 day-off, 5-10 mg/kg/adm

## CN1C(=O)[C@@H](NC(=O)[C@H](CCC(F)(F)F)[C@H](CCC(F)(F)F)C(N)=O)N=C(c2ccccc2)c2ccccc21 [Compound A, (2R,3S)—N-((3S)-1-Methyl-2-oxo-5-phenyl-2,3-dihydro-1H-1,4-benzodiazepin-3-yl)-2,3-bis(3,3,3-trifluoropropyl)succinamide]
[1]
  Antitumor Activity (% TGI): 82 % TGI
HCT116 colon cancer
  Antitumor Activity (% TGI): 75 % TGI
G292 osteogenic sarcoma
  Antitumor Activity (% TGI): 75 % TGI
SK-N-AS neuroblastoma
  Antitumor Activity (% TGI): 67 % TGI
[2]
  Antitumor Activity (% TGI): 63 % TGI
[3]
  Antitumor Activity (% TGI): 81 % TGI
[4]
  0.5 μM HLM (% Remaining): 97%
[5]
  Antitumor Activity (% TGI): 73 % TGI
[6]
  Antitumor Activity (% TGI): 96 % TGI
Pat-24 pancreatic cancer
  Antitumor Activity (% TGI): 111 % TGI
[7]
  Antitumor Activity (% TGI): 91 % TGI
TALL-1 leukemia
  IC50: 3.9 nM
[8]
  Antitumor Activity (% TGI): 73 % TGI
Pat-26 pancreatic cancer
  Antitumor Activity (% TGI): 93 % TGI
MDA-MB-468 breast cancer
  IC50: 3.8 nM
Pat-50 ovarian cancer
  Antitumor Activity (% TGI): 91 % TGI
Pat-34 ovarian cancer
  Antitumor Activity (% TGI): 89 % TGI
[9]; FIG. 1, dosed intravenously QD×3, weekly×3, Compound A 3 mg/kg, Example 12 1.5, 3, 6 mg/kg, active = TGI≧50%
  in vivo efficacy against TALL1, activity as defined by the tumor growth inhibition (TGI): active
[9]; TALL1 xenograft, PO, QDx15, 10 day-on-2 day-off, 5-10 mg/kg/adm
  Antitumor Activity (% TGI): 112 % TGI
[10]
  0.5 μM MsLM (% Remaining): 91%
[11]
  Antitumor Activity (% TGI): 81 % TGI
